Measurements: patent US11834453B2, “Substituted pyrimido[5,4-d]pyrimidines as HER2 inhibitors” (Array BioPharma Inc., priority 2020, dated 2023)
Read-outs that look alike come from different tables or passages of the source.

Legend:
BCRP [1] = biological target: T1, BCRP (Homo sapiens (Human), UniProt Q9UNQ0); experiment: BCRP transfected MDCKII permeability/efflux, Assay 8; format: in vitro ADME; conditions: dog, efflux ratio Papp(B-A)/Papp(A-B), read-out: Assay 8 Pe Ratio
Method: BCRP transfected MDCKII cells (Assay 8) and BCRP transfected MDCKII canine Mdr1 knockout cells (Assay 9) were cultured and plated according to manufacturer's recommendations.
(§1) Both positive and negative controls were used to assess functionality of P-gp or BCRP efflux in the assays. Stock solutions for assay controls and the test article were prepared in DMSO for final test concentration of 1 μM. Final organic concentration in the assay was 1%. All dosing solutions contained 10 μM lucifer yellow to monitor MDCKII cell monolayer integrity.
(§2) For the apical to basolateral determination (A to B), 75 μL of the test article in transport buffer were added to the apical side of the individual transwells and 250 μL of basolateral media, without compound or lucifer yellow, were added to each well. For the basolateral to apical determination (B to A), 250 μL of test article in transport buffer were added to each well and 75 μL transport buffer, without compound or lucifer yellow, were added to each transwell. All tests were performed in triplicate, and each compound was tested for both apical to basolateral and basolateral to apical transport. The plates were incubated for 2 hours on a Lab-Line Instruments Titer Orbital Shaker (VWR, West Chester, PA) at 50 rpm and 37° C. with 5% CO2. All culture plates were removed from the incubator, 50 μL of media were removed from the apical and basolateral portion of each well, and added to 150 μL of 1 μM labetalol in 2:1 acetonitrile (ACN): H2O, v/v.
The plates were read using a Molecular Devices (Sunnyvale, CA) Gemini Fluorometer to evaluate the lucifer yellow concentrations at excitation/emission wavelengths of 425/535 nm. […] The plates were sealed, and the contents of each well analyzed by LC MS/MS. The compound concentrations were determined from the ratio of the peak areas of the compound to the internal standard (labetalol) in comparison to the dosing solution.
(§3) A MDS Sciex API 4000 (Applied Biosystems, Foster City, CA) mass spectrometer was used for detection of the analytes in the ion spray positive mode. Analyte responses were measured by multiple reaction monitoring (“MRM”) of transitions unique to each compound (the protonated precursor ion and selected product ions for each test article and m/z 329 to m/z 162 for labetalol, the internal standard.
(§4) The total run time, including re-equilibration, for a single injection was 1.2 minutes. […] The total run time, including re-equilibration, for a single injection was 0.61 minutes.
(§5) An efflux ratio is calculated from the mean apical to basolateral (A-B) Papp data and basolateral to apical (B-A) Papp data: Efflux ratio=Papp(B−A)/Papp(A−B)

EGFR = EGFR (Homo sapiens (Human), UniProt P00533); experiment: ErbB enzyme assay (CisBio HTRF KinEASE-TK), Assay 3; format: biochemical
Chain of EGFR (P00533 25-1210): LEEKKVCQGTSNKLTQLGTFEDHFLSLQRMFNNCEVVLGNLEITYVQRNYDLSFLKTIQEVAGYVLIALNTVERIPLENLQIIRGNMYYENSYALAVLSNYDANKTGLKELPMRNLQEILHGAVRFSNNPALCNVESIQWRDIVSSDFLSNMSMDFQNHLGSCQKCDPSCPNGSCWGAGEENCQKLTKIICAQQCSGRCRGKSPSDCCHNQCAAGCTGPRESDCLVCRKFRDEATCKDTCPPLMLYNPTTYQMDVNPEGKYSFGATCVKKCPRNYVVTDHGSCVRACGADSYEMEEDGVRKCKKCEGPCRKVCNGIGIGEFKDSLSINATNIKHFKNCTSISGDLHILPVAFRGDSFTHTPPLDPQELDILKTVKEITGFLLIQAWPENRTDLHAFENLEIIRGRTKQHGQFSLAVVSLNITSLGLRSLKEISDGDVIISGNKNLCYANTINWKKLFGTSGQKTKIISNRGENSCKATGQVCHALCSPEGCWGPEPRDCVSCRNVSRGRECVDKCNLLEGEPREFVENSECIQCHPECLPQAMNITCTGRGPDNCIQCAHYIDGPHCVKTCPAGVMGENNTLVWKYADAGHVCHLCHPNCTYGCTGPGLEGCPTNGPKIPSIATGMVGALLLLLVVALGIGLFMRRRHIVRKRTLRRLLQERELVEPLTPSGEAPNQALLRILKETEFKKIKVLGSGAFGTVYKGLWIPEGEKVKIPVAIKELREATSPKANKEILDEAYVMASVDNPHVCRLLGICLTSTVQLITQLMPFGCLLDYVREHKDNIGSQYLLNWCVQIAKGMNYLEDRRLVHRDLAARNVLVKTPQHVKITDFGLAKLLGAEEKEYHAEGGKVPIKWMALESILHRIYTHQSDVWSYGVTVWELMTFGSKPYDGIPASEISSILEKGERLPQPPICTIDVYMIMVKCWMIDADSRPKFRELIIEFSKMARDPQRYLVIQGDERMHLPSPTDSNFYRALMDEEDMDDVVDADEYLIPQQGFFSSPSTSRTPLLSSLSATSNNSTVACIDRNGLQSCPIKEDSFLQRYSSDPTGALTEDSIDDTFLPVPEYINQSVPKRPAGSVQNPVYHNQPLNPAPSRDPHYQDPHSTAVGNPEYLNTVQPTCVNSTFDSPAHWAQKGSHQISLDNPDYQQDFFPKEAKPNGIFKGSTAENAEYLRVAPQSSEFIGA
Method in brief: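 Inhibition is measured as reduced peptide phosphorylation by HTRF KinEASE-TK at 1 mM ATP and 250 nM substrate, 30 min at 22 °C. Values are IC50s from a 4-parameter logistic fit.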

ErbB2 WT = ErbB2 WT (Homo sapiens (Human), UniProt P04626); experiment: ErbB enzyme assay (CisBio HTRF KinEASE-TK), Assay 2; format: biochemical
Chain of ErbB2 WT (P04626 23-1255): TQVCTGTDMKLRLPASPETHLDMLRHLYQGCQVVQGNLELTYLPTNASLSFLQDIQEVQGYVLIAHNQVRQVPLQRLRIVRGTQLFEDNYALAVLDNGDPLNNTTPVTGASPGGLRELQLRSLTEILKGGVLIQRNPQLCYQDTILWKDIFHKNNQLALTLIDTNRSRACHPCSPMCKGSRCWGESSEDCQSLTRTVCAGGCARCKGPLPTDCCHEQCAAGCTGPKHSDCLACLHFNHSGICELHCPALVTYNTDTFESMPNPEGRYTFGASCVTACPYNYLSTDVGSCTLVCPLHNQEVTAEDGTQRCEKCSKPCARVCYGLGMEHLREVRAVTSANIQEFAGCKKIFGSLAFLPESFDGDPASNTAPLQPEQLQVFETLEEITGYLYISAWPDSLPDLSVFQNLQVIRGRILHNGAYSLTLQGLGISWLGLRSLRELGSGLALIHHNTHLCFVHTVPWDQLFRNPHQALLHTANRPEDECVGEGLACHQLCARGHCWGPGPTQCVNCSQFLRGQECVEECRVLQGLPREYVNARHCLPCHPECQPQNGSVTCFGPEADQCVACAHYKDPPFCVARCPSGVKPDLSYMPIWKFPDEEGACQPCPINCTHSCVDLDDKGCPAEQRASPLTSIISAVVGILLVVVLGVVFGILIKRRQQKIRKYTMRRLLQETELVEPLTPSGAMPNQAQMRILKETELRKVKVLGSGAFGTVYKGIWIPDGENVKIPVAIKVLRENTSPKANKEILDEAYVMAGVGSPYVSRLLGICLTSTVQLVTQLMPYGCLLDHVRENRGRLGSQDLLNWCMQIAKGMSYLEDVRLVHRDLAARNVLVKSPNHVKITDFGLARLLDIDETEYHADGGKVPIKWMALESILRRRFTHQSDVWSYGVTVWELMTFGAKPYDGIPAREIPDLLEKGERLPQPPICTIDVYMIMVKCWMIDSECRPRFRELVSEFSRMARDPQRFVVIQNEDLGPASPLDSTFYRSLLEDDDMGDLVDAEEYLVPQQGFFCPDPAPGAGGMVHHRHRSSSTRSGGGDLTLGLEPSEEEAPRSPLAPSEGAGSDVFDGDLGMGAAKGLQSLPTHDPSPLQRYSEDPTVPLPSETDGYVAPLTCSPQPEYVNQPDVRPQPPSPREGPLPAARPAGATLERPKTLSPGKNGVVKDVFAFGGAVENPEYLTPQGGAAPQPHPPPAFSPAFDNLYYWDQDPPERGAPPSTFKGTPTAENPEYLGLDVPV
Method in brief: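 ErbB2 phosphorylates 250 nM biotin-TK substrate at 1 mM ATP in 25 mM HEPES pH 7.4, 10 mM MgCl2, 0.01% Triton X-100 and 2% DMSO, for 30 min at 22 °C. Product is detected by HTRF with Sa-XL665 and TK-Ab-Cryptate. Percent of control is set by DMSO-only wells and pre-quenched wells.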

MDR1 (P-gp) [2] = biological target: T2, MDR1 (P-gp) (Homo sapiens (Human), UniProt P08183); experiment: MDR1 transfected LLC-PK1 permeability/efflux, Assay 6; conditions: pig, LLC-PK1, Assay 6 Pe Ratio, efflux ratio Papp(B-A)/Papp(A-B), MDR1 transfected LLC-PK1
T2 sequence (P08183 whole entry): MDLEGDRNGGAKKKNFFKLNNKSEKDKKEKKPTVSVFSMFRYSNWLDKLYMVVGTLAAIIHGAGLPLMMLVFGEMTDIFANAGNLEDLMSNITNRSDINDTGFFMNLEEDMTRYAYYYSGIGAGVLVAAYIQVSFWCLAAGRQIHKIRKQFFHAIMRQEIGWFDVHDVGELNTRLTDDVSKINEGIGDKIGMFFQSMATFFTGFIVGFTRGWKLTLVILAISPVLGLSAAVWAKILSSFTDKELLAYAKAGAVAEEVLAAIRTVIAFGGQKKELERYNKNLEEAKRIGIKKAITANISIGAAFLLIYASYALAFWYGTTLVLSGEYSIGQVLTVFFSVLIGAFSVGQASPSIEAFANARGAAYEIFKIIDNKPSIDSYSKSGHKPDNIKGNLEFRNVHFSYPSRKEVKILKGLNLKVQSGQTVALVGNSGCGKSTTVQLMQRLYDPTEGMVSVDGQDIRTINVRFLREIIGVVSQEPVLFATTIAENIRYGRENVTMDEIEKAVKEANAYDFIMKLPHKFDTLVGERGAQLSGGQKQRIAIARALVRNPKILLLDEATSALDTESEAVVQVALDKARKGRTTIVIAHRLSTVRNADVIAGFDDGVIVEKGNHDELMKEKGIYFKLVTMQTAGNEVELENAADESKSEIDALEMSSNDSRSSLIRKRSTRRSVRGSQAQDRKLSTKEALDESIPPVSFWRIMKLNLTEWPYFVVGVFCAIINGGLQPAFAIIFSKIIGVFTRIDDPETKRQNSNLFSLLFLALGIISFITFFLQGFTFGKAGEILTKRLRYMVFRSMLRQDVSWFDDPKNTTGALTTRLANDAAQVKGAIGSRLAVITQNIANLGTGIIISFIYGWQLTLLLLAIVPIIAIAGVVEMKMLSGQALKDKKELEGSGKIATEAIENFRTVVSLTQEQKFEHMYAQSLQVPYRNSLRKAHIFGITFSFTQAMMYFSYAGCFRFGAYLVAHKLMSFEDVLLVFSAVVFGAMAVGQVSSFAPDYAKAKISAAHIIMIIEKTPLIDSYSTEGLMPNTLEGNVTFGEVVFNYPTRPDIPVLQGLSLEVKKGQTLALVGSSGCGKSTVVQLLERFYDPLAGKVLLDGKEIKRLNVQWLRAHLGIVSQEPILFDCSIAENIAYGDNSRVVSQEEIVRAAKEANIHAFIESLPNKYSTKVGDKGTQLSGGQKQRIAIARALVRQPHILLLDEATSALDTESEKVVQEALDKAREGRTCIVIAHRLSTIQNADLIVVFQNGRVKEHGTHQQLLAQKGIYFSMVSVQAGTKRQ

[3] = biological target: ErbB2 with Exon 20 YVMA insertion (HER2-YVMA) (Homo sapiens (Human), UniProt P04626, INS775YVMA); experiment: Cellular phosphorylation assay, constitutive ErbB2 phosphorylation (Y1196) in engineered NIH 3T3 cells, Assay 4; format: cell-based
Method in brief: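 Engineered NIH 3T3 cells expressing HER2-YVMA treated with compounds 1 h at 37 °C, then formaldehyde-fixed and methanol-permeabilized. pErbB2 Y1196 detected by in-cell infrared immunofluorescence, normalized to GAPDH. IC50 from the normalized curves.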

EGFR wild type (EGFR WT) [4] = biological target: T3, EGFR wild type (EGFR WT) (Homo sapiens (Human), UniProt P00533); experiment: Cellular phosphorylation assay, EGF-stimulated EGFR phosphorylation in engineered NIH 3T3 cells, Phospho-EGFR DuoSet IC ELISA, Assay 5; format: cell-based
Method in brief: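 NIH 3T3 cells expressing EGFR WT (20,000/well, attached overnight) were exposed to serially diluted compound for 1 h at 37 °C, then stimulated with 100 ng/ml rEGF for 10 min. Phospho-EGFR in lysates measured by sandwich ELISA optical density; IC50 from curves.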

[5] = biological target: ErbB2 insYVMA (HER2-YVMA, SEQ ID NO: 2) (Homo sapiens, UniProt P04626, INS775YVMA/P1170A); experiment: biochemical; conditions: ErbB2 insYVMA enzyme assay
Chain of ErbB2 insYVMA (HER2-YVMA, SEQ ID NO: 2) (P04626 with tags, fused parts or gaps INS775YVMA/P1170A limits assumed): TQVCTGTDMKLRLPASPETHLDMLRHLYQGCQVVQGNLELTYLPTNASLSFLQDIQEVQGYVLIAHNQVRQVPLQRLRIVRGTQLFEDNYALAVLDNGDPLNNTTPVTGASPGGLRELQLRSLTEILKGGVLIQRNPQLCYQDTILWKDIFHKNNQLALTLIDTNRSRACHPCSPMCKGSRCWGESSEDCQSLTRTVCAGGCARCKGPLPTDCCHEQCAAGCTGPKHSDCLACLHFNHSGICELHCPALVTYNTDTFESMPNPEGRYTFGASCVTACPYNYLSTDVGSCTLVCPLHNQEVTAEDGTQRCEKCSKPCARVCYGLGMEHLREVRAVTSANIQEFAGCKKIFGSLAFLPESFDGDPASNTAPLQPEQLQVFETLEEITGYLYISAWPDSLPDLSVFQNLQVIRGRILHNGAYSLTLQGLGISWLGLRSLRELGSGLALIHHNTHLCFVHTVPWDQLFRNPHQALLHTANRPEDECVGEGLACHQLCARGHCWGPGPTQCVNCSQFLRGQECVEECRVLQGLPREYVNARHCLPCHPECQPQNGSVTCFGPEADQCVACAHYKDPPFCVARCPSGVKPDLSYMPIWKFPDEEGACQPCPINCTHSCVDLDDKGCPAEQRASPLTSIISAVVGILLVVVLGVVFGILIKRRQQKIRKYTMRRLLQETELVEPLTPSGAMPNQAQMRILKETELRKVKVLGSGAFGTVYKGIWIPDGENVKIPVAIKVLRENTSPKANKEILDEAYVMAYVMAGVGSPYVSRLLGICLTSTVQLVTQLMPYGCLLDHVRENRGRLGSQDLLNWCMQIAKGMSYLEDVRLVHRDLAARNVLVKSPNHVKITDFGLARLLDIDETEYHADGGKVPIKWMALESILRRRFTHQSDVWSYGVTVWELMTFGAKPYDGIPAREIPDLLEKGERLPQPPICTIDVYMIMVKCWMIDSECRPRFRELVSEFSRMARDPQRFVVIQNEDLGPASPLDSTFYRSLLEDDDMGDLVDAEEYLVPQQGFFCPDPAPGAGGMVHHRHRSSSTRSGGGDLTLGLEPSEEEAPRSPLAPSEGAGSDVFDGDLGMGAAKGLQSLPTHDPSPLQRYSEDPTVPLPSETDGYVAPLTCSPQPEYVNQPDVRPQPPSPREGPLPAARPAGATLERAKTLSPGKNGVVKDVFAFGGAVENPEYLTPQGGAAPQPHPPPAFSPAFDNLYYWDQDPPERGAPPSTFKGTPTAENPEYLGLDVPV

MDR1 (P-gp) [6] = biological target: T2, MDR1 (P-gp); conditions: dog, MDCK-MDR1, 2 h, 1 μM
Method: (§6) Both MDR1 transfected LLC-PK1 (Assay 6) and MDR1 transfected MDCKII canine Mdr1 knockout cells (Assay 7) were cultured and plated according to manufacturer's recommendations with the exception that the passage media for the MDR1 transfected LLC-PK1 cell line contained only 2% fetal bovine serum so as to extend passage time out to seven days.
as §1, §2
(§7) The plates were read using a Molecular Devices (Sunnyvale, CA) Gemini Fluorometer to evaluate the lucifer yellow concentrations at excitation/emission wavelengths of 425/535 nm. These values were accepted when found to be below 2% for apical to basolateral and 5% basolateral to apical flux across the MDR1-transfected LLC-PK1 or BCRP-transfected MDCKII cell monolayers. The plates were sealed, and the contents of each well analyzed by LC MS/MS. The compound concentrations were determined from the ratio of the peak areas of the compound to the internal standard (labetalol) in comparison to the dosing solution.
as §3, §4, §5

BCRP [7] = biological target: T1, BCRP; conditions: dog, 2 h, 1 μM
MDR1 (P-gp) [8] = biological target: T2, MDR1 (P-gp); experiment: MDR1 transfected MDCKII canine Mdr1 knockout permeability/efflux, Assay 7; conditions: dog, MDCK-MDR1
Method: as §6, §1, §2, §7, §3, §4, §5

EGFR wild type (EGFR WT) [9] = biological target: T3, EGFR wild type (EGFR WT); experiment: Cellular phosphorylation assay, EGF-stimulated EGFR phosphorylation (Y1068) in engineered NIH 3T3 cells, Odyssey imaging, Assay 5 (footnote 1); format: cell-based; conditions: values marked with footnote 1
Method: NIH 3T3 cells were engineered to express ErbB2 with Exon 20 YVMA insertion (HER2-YVMA (SEQ ID NO: 2); Assay 4) or EGFR wild type (EGFR WT; Assay 5, footnote 1) with constructs obtained from GenScript and grown in DMEM supplemented with 10% fetal bovine serum and 15 μg/ml blasticidin. Cells were plated in 96-well plates at 40,000 or 45,000 cells/well for HER2-YVMA (SEQ ID NO: 2) and EGFR WT assays, respectively, and allowed to attach overnight at 37° C./5% CO2. Serially diluted compounds were added to the plates for 1 hour at 37° C./5% CO2. EGFR WT cells were stimulated with 100 ng/ml rEGF for an additional 10 minutes at 37° C./5% CO2. After compound incubation, medium was removed from the cells, which were then fixed in 3.7% formaldehyde in PBS at room temperature for 20 minutes. Following a wash with PBS, cells were permeabilized with 100% methanol at room temperature for 10 minutes. Cells were then washed with PBS/0.05% Tween-20 and blocked with Odyssey blocking buffer (LI-COR Biosciences) for at least 1 hour at room temperature. Antibodies to phosphorylated ErbB2 (Y1196, Cell Signaling #6942) or phosphorylated EGFR (Y1068, Cell Signaling #3777) and GAPDH (Millipore #MAB374) were added to the cells in blocking buffer containing 0.05% azide and incubated overnight at 4° C. After washing with PBS/0.05° i° Tween-20, the cells were incubated with fluorescently labeled secondary anti-rabbit antibody (LiCOR, IRDye 800CW #926-32211) and anti-mouse antibody (Molecular Probes, Alexa Fluor 680 #A21058) for 1 hour at room temperature in the dark. Cells were then washed and analyzed for fluorescence at both wavelengths using the Odyssey Infrared Imaging System (LI-COR Biosciences). Phosphorylated ErbB2 and EGFR signal was normalized to GAPDH signal to generate curves and calculate IC50 values.

SMILES	efflux ratio at 2 h, 1 μM (BCRP [1])	IC50 (EGFR) [µM]	IC50 (ErbB2 WT) [nM]	efflux ratio at 2 h, 1 μM (MDR1 (P-gp) [2])	IC50 [3] [nM]	IC50 (EGFR wild type (EGFR WT) [4]) [µM]	IC50 ([5]; Assay 1 IC50 (nM)) [nM]	Assay 7 Pe Ratio (MDR1 (P-gp) [6])	IC50 ([5]; read-out: Assay 1 IC50) [nM]	Assay 9 Pe Ratio (BCRP [7])	efflux ratio at 2 h, 1 μM (MDR1 (P-gp) [8])	IC50 (EGFR wild type (EGFR WT) [9]) [µM]
Cc1cc(Nc2ncnc3cnc(N4CCOCC4)nc23)ccc1Oc1ccc2scnc2c1.O=C(O)C(F)(F)F [Example 82, N-(4-(benzo[d]thiazol-5-yloxy)-3-methylphenyl)-6-morpholinopyrimido[5,4-d]pyrimidin-4-amine 2,2,2-trifluoroacetate]	1	1.22	204	1.3	54.7	≥ 5	47					
Cc1cc(Nc2ncnc3cnc(N4[C@H]5CC[C@@H]4[C@@H](O)C5)nc23)ccc1Oc1ccc2c(c1)ncn2C (racemic) [Example 105, ±(1R,2S,4S)-7-(8-((3-methyl-4-((1-methyl-1H-benzo[d]imidazol-5-yl)oxy)phenyl)amino)pyrimido[5,4-d]pyrimidin-2-yl)-7-azabicyclo[2.2.1]heptan-2-ol]		10	48.5		39	5		2.0	56.7	8.6		
Cc1cc(Nc2ncnc3cnc(N(C)C)nc23)ccc1Oc1ccc2csnc2c1 [Example 49, N8-(4-(benzo[c]isothiazol-6-yloxy)-3-methylphenyl)-N2,N2-dimethylpyrimido[5,4-d]pyrimidine-2,8-diamine 2,2,2-trifluoroacetate]	5.1	2.25	241	1.7	132	≥ 5			55.3			
CSc1ncc2ncnc(Nc3ccc(Oc4ccc5c(c4)ncn5C)c(C)c3)c2n1 [Example 1, N-(3-methyl-4-((1-methyl-1H-benzo[d]imidazol-5-yl)oxy)phenyl)-6-(methylthio)pyrimido[5,4-d]pyrimidin-4-amine]		≥ 10	41.1	1.2	29.2				19.3		1.4	5
Cc1cc(Nc2ncnc3cnc(NC4(C)CC4)nc23)ccc1Oc1ccc2c(c1)ncn2C [Example 268]	1.1	≥ 10	93.7	1.5	39	≥ 5			82			
Cc1cc(Nc2ncnc3cnc(NCC4CC4)nc23)ccc1Oc1ccc2c(c1)ncn2C [Example 20, N2-(cyclopropylmethyl)-N8-(3-methyl-4-((1-methyl-1H-benzo[d]imidazol-5-yl)oxy)phenyl)pyrimido[5,4-d]pyrimidine-2,8-diamine]	0.7	≥ 10	130	1.9	44.8	≥ 5			66.1			
Cc1cc(Nc2ncnc3cnc(NC4CCC4)nc23)ccc1Oc1ccc2c(c1)ncn2C [Example 14, N2-cyclobutyl-N8-(3-methyl-4-((1-methyl-1H-benzo[d]imidazol-5-yl)oxy)phenyl)pyrimido[5,4-d]pyrimidine-2,8-diamine]	0.9	≥ 10	85.9	1.3	37	≥ 5			56.2			
Cc1cc(Nc2ncnc3cnc(N4CCOCC4)nc23)ccc1Oc1ccc2c(c1)ncn2C [Example 9, N-(3-methyl-4-((1-methyl-1H-benzo[d]imidazol-5-yl)oxy)phenyl)-6-morpholinopyrimido[5,4-d]pyrimidin-4-amine 2,2,2-trifluoroacetate]		≥ 10	64	0.8	4.9				13.6		1.2	5
CSc1ncc2ncnc(Nc3ccc(Oc4ccc5csnc5c4)c(C)c3)c2n1 [Example 11, N-(4-(benzo[c]isothiazol-6-yloxy)-3-methylphenyl)-6-(methylthio)pyrimido[5,4-d]pyrimidin-4-amine 2,2,2-trifluoroacetate]		0.925	97.4	0.7	95.1				54.4		0.7	5
Cc1c(Oc2ccc3c(c2)ncn3C)ccc(Nc2ncnc3cnc(N4CCOCC4)nc23)c1F [Example 263]	1.5	≥ 10	137	0.9	16.1	≥ 5			57.6			
Cc1cc(Nc2ncnc3cnc(N(C)C)nc23)ccc1Oc1ccc2scnc2c1 [Example 271]	0.9	1.26	145	1.8	30.9	3.08			42.2			
COc1ncc2ncnc(Nc3ccc(Oc4ccc5csnc5c4)c(C)c3)c2n1 [Example 7, N-(4-(benzo[c]isothiazol-6-yloxy)-3-methylphenyl)-6-methoxypyrimido[5,4-d]pyrimidin-4-amine 2,2,2-trifluoroacetate]		2.01	56.8	1	146				18.5		1.3	5
COc1ncc2ncnc(Nc3ccc(Oc4ccc5c(c4)ncn5C)c(C)c3)c2n1 [Example 8, 6-methoxy-N-(3-methyl-4-((1-methyl-1H-benzo[d]imidazol-5-yl)oxy)phenyl)pyrimido[5,4-d]pyrimidin-4-amine 2,2,2-trifluoroacetate]		≥ 10	69.7	0.9	159				22.7		1	5
CNc1ncc2ncnc(Nc3ccc(Oc4ccc5c(c4)ncn5C)c(C)c3)c2n1 [Example 4, N2-methyl-N8-(3-methyl-4-((1-methyl-1H-benzo[d]imidazol-5-yl)oxy)phenyl)pyrimido[5,4-d]pyrimidine-2,8-diamine]		4.9	30	0.9	7.2				8.9		1.4	5
Cc1cc(Nc2ncnc3cnc(N(C)C)nc23)ccc1Oc1ccc2c(c1)ncn2C [Example 3, N2,N2-dimethyl-N8-(3-methyl-4-((1-methyl-1H-benzo[d]imidazol-5-yl)oxy)phenyl)pyrimido[5,4-d]pyrimidine-2,8-diamine 2,2,2-trifluoroacetate]		8.25	52.4	1	42.9				12.5		1	5
